Laboratory results: patent publication US20240122990A1, “COMPOSITIONS AND METHODS FOR CARDIOMYOCYTE TRANSPLANTATION” (UNIVERSITY OF WASHINGTON, priority 2021, published 2024)

Key:
[1] = tested on: riPSC-CM cardiomyocyte grafts; test: Allogeneic rhesus iPSC-CM transplantation into MHC-mismatched rhesus recipients, histopathological immune rejection of the graft; format: in vivo, rhesus macaque (Macaca mulatta); conditions: low-dose subcutaneous TAC alone, trough 5-10 ng/mL; 8 weeks post-transplant; 200×10^6 riPSC-CMs
Excerpt: To identify a minimal, steroid-sparing immunosuppression regimen for first-in-human allogeneic transplantation, a non-human primate (NHP) model was developed where rhesus iPSC-CM are transplanted into normal or infarcted hearts of MHC-mismatched recipients. Allogeneic iPSCs derived from rhesus macaque (Macaca mulatta) were differentiated into a highly enriched population of cardiomyocytes (riPSC-CMs). 200×10^6 riPSC-CMs were transplanted into 11 MHC-mismatched rhesus recipients. The primary study endpoint was the degree of histopathological immune rejection. […] Subsequent studies focused on 8-week engraftment, with promising regimens studied further out to 16 weeks.

T-cell activation = conditions: relative to abatacept; cited from earlier work

Molecule	degree of histopathological immune rejection of the graft [1]	increase in the ability to inhibit T-cell activation in vitro compared to abatacept (T-cell activation)
C=CC[C@@H]1/C=C(\C)C[C@H](C)C[C@H](OC)[C@H]2O[C@@](O)(C(=O)C(=O)N3CCCC[C@H]3C(=O)O[C@H](/C(C)=C/[C@@H]3CC[C@@H](O)[C@H](OC)C3)[C@H](C)[C@@H](O)CC1=O)[C@H](C)C[C@@H]2OC [tacrolimus]	moderate to severe rejection	–
Belatacept: derivative of abatacept comprising two amino acid alterations in the CD80/86 binding portion	–	10 fold
